Results on 43 compounds are retold here after patent US11365192B2, “Pyridine compound substituted with azole” (TAISHO PHARMACEUTICAL CO., LTD., priority 2017, dated 2022).

The IC50 is the concentration that inhibits the measured activity by half. Low values mean greater potency, high ones weaker potency.

One assay has as its target human CYP4A11 (Homo sapiens (Human), UniProt Q02928). As to the kind of experiment: Inhibition test against 20-HETE producing enzyme CYP4A11 (luciferine derivative, luminescence). Type of assay: biochemical. How it is done:
(§1) (1) Inhibition Test for Each Compound of the Present Invention Against 20-HETE Producing Enzymes (CYP4F2 and CYP4A11)
(§2) In the CYP4F2 inhibition test, the reaction solution containing each compound [final concentration of 50 mM, KPO4 (pH 7.4), 2.5 μM luciferine derivative, and 1 mM NADPH] was added to an Escherichia coli membrane fraction (100 μg/mL protein) in which human CYP4F2 had been expressed. In the CYP4A11 inhibition test, the reaction solution containing each compound [final concentration of 100 mM, Tris-HCl (pH 7.5), 60 μM luciferine derivative, 1.3 mM NADP^+, 3.3 mM Glucose 6-Phosphate, 3.3 mM MgCl2, and 0.4 U/mL Glucose 6-Phosphate dehydrogenase] was added to an Escherichia coli membrane fraction (100 μg/mL protein) in which human CYP4A11 had been expressed. Following this, the membrane fraction was left to stand at room temperature for 60 minutes to perform an enzymatic reaction. After the reaction, a luciferine detection reagent was added, and the luminescence value was measured using a plate reader. By using that value, the percent inhibition of 20-HETE producing enzyme (%) was calculated according to the equation described below, and the 50% inhibitory concentration (IC50 value) for each compound was calculated. Percent inhibition of 20-HETE producing enzyme (%)=[1−(A−B)/(C−B)]*100
(§3) A: Luminescence value with addition of compound
(§4) B: Luminescence value without addition of compound and enzyme

In a further assay the target is human CYP4F2 (Homo sapiens (Human), UniProt P78329). As to the kind of experiment: Inhibition test against 20-HETE producing enzyme CYP4F2 (luciferine derivative, luminescence). Type of assay: biochemical. How it is done:
as §1, §2, §3, §4

Where [1] appears, read: E. coli membrane fraction expressing human CYP4A11, 60 μM luciferine derivative, room temperature 60 minutes.
[2] abbreviates: E. coli membrane fraction expressing human CYP4F2, 2.5 μM luciferine derivative, room temperature 60 minutes.
Setting [3] is: human CYP4A11, luciferine derivative, luminescence.
Setting [4] is: human CYP4F2, luciferine derivative, luminescence.

human CYP4A11, sequence (Q02928 5-519): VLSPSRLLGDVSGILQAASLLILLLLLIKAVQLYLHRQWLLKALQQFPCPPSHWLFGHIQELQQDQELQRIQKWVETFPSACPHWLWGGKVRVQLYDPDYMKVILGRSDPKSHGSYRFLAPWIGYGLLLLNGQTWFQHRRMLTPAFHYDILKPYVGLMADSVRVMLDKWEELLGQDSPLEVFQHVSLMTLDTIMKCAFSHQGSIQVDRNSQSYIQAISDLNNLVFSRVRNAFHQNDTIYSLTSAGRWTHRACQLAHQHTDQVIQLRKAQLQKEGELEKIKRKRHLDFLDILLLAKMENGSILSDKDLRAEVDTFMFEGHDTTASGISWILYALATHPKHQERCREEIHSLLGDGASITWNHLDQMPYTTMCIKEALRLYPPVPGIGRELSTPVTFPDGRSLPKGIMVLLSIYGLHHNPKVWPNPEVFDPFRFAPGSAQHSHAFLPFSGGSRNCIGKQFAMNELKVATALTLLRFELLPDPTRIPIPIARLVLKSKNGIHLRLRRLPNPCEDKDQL
human CYP4F2, sequence (P78329 5-520): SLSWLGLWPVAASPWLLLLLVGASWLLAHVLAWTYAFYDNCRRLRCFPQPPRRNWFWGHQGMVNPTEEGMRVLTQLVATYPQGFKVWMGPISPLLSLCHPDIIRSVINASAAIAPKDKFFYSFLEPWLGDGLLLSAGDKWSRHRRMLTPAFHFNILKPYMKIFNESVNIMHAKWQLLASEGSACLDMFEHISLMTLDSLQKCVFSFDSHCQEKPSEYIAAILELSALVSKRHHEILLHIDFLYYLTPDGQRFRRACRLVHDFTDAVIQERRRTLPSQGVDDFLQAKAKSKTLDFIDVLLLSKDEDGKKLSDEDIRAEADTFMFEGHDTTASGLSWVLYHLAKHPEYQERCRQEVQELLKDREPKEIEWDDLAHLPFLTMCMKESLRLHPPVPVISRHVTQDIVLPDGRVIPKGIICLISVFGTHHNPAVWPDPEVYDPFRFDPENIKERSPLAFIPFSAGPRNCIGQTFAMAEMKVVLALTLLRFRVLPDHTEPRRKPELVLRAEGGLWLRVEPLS

In the case of `CC(C)(C(=O)O)n1cc(CCCCOc2ccc(-c3ccn[nH]3)nc2)cn1` [Example 8-13], the IC50 at human CYP4A11 (setting [1]) was determined as 120 nM; on human CYP4F2 (setting [2]) it was 8300 nM.

In the case of `CC(C)(CCCCCOc1ccc(-c2ccn[nH]2)nc1)C(=O)O` [Example 1-43, 2,2-Dimethyl-7-[[6-(1H-pyrazol-5-yl)-3-pyridinyl]oxy]heptanoic Acid], the figures for the 50% inhibitory concentration (IC50) against human CYP4A11 (setting [1]) and at human CYP4F2 (setting [2]) were 46 nM and 18000 nM, respectively.

In the case of `CC(C)(CCNC(=O)N1CCC[C@@H](COc2ccc(-c3ccn[nH]3)nc2)C1)C(=O)O` [Example 55-1, 2,2-Dimethyl-4-[[oxo-[(3R)-3-[[6-(1H-pyrazol-5-yl)-3-pyridinyl]oxymethyl]-1-piperidinyl]methyl]amino]butanoic Acid], the IC50 on human CYP4A11 (setting [1]) was 200 nM; on human CYP4F2 (setting [2]) it was 6500 nM.

Take `O=C(CCc1cccc(COc2ccc(-c3ccn[nH]3)nc2)c1)NC1COC1` [Example 43-4]: the IC50 was 150 nM against human CYP4A11 (setting [3]) and 45 nM against human CYP4F2 (setting [4]).

As to `O=C(O)Cn1cc(CCCCOc2ccc(-c3ccn[nH]3)nc2)nn1` [Example 35-2], the IC50 against human CYP4A11 (setting [1]) turned out to be 360 nM; against human CYP4F2 (setting [2]) it was 5700 nM.

For the compound `O=C(O)CCc1cccc(COc2cnc(-c3ccn[nH]3)c(F)c2)c1` [Example 38-1, 3-[3-[[5-Fluoro-6-(1H-pyrazol-5-yl)-3-pyridinyl]oxymethyl]phenyl]propanoic Acid], the IC50 worked out at 20 nM against human CYP4A11 (setting [1]) and 1100 nM at human CYP4F2 (setting [2]).

On to `CN(CCC(C)(C)C(=O)O)S(=O)(=O)c1cccc(COc2ccc(-c3ccn[nH]3)nc2)c1` [Example 21-5], for which the 50% inhibitory concentration (IC50) against human CYP4A11 (setting [1]) is 29 nM; against human CYP4F2 (setting [2]), 430 nM.

In the case of `Oc1cccc(CCCOc2ccc(-c3ccn[nH]3)nc2)c1` [Example 11-2], the values for the IC50 against human CYP4A11 (setting [1]) and against human CYP4F2 (setting [2]) were 520 nM and 19 nM, respectively.

Consider `CS(=O)(=O)c1cc(O)cc(COc2ccc(-c3[nH]ncc3Cl)nc2)c1` [Example 66-1, 3-[[6-(4-Chloro-1H-pyrazol-5-yl)-3-pyridinyl]oxymethyl]-5-methylsulfonylphenol], for which the IC50 against human CYP4A11 (setting [1]) is 33 nM; on human CYP4F2 (setting [2]), 16 nM.

Turning to `CS(=O)(=O)NC(=O)Cc1cccc(COc2ccc(-c3ccn[nH]3)nc2)c1` [Example 44-3], the half-maximal inhibitory concentration (IC50) was 44 nM against human CYP4A11 (setting [3]) and 11000 nM at human CYP4F2 (setting [4]).

As to `O=S(=O)(Nc1ccc(F)cc1)c1ccc(COc2ccc(-c3ccn[nH]3)nc2)cc1` [Example 23-6], the IC50 was 270 nM against human CYP4A11 (setting [1]) and 6.4 nM against human CYP4F2 (setting [2]).

Turning to `O=C(O)CCc1cccc(CCOc2ccc(-c3ccn[nH]3)nc2)c1` [Example 1-16], the IC50 at human CYP4A11 (setting [1]) was 36 nM; against human CYP4F2 (setting [2]) it was 1100 nM.

On to `O=C(O)Cc1cccc(COc2ccc(-c3cncs3)nc2)c1` [Example 40-2], for which the IC50 at human CYP4A11 (setting [1]) stood at 6.9 nM; against human CYP4F2 (setting [2]), 8200 nM.

Regarding `O=C(O)c1cnn2c1CN(C(=O)c1cccc(COc3ccc(-c4ccn[nH]4)nc3)c1)CC2` [Example 45-44], the figures for the IC50 at human CYP4A11 (setting [3]) and against human CYP4F2 (setting [4]) were 110 nM and 3500 nM, respectively.

Turning to `CC(=O)N1CCC(C(=O)O)(c2cccc(COc3ccc(-c4ccn[nH]4)nc3)c2)CC1` [Example 33-1, 1-Acetyl-4-[3-[[6-(1H-pyrazol-5-yl)-3-pyridinyl]oxymethyl]phenyl]-4-piperidinecarboxylic Acid], the IC50 amounted to 180 nM at human CYP4A11 (setting [1]) and 7000 nM against human CYP4F2 (setting [2]).

As to `O=C(O)C1CN(S(=O)(=O)c2cccc(COc3ccc(-c4ccn[nH]4)nc3)c2)CCO1` (centres unmarked) [Example 22-12], the IC50 against human CYP4A11 (setting [1]) is 53 nM; against human CYP4F2 (setting [2]), 2000 nM.

For `O=C(O)C1(OCCOCCCCOc2ccc(-c3ccn[nH]3)nc2)CCCC1` [Example 2-4], the IC50 was 200 nM at human CYP4A11 (setting [1]) and 1800 nM at human CYP4F2 (setting [2]).

As to `CS(=O)(=O)N[C@H]1CC[C@@H](Oc2ccc(-c3ccn[nH]3)nc2)CC1` [Example 57-2], the results for the IC50 on human CYP4A11 (setting [1]) and against human CYP4F2 (setting [2]) were 6700 nM and 7300 nM, respectively.

In the case of `O=C(O)C[C@@H](NC(=O)c1cccc(COc2ccc(-c3ccn[nH]3)nc2)c1)c1ccccc1` [Example 45-8], the IC50 against human CYP4A11 (setting [3]) was found to be 130 nM; against human CYP4F2 (setting [4]), 1900 nM.

As for `O=C(O)C1CCN(S(=O)(=O)c2cccc(COc3ccc(-c4ccn[nH]4)nc3)c2)C1` (centres unmarked) [Example 22-10], the half-inhibitory concentration (IC50) was 24 nM against human CYP4A11 (setting [1]) and 2000 nM at human CYP4F2 (setting [2]).

Consider `O=C(CCCC1(C(=O)O)CCCC1)N1CCC[C@@H](COc2ccc(-c3ccn[nH]3)nc2)C1` [Example 3-2], for which the IC50 against human CYP4A11 (setting [1]) was 120 nM; at human CYP4F2 (setting [2]), 440 nM.

Take `CC(C)(Oc1cccc(COc2ccc(-c3ccn[nH]3)nc2)n1)C(=O)O` [Example 1-66]: the IC50 against human CYP4A11 (setting [1]) was 330 nM; on human CYP4F2 (setting [2]) it was over 50000 nM.

For the compound `CNC(=O)C(C)c1cccc(COc2ccc(-c3ccn[nH]3)nc2)c1` (centres unmarked) [Example 42-23], the figures for the IC50 against human CYP4A11 (setting [3]) and against human CYP4F2 (setting [4]) were 160 nM and 55 nM, respectively.

Take `O=C(O)CCS(=O)(=O)c1cccc(COc2ccc(-c3ccn[nH]3)nc2)c1` [Example 14-1, 3-[3-[[6-(1H-Pyrazol-5-yl)-3-pyridinyl]oxymethyl]phenyl]sulfonylpropanoic Acid]: the IC50 against human CYP4A11 (setting [1]) worked out at 30 nM; against human CYP4F2 (setting [2]), 2200 nM.

In the case of `O=C(O)C1(c2cccc(COc3ccc(-c4ccn[nH]4)nc3)c2)CC1` [Example 21-3], the figures for the IC50 against human CYP4A11 (setting [1]) and against human CYP4F2 (setting [2]) were 16 nM and 21000 nM, respectively.

As for `O=C(O)C1CCN(S(=O)(=O)c2cccc(COc3ccc(-c4ccn[nH]4)nc3)c2)CC1` [Example 22-8], the IC50 on human CYP4A11 (setting [1]) came to 68 nM; at human CYP4F2 (setting [2]), 1500 nM.

As to `O=C(O)C1(C(=O)NCCCCCCOc2ccc(-c3ccn[nH]3)nc2)CCCC1` [Example 3-9], the IC50 on human CYP4A11 (setting [1]) turned out to be 240 nM; at human CYP4F2 (setting [2]) it was 430 nM.

On to `NS(=O)(=O)CCCCCOc1ccc(-c2ccn[nH]2)nc1` [Example 11-4, 5-[[6-(1H-Pyrazol-5-yl)-3-pyridinyl]oxy]-1-pentanesulfonamide], for which the values for the IC50 on human CYP4A11 (setting [1]) and against human CYP4F2 (setting [2]) were 4500 nM and 1300 nM, respectively.

In the case of `CN(CCC(=O)O)C(=O)c1cccc(COc2ccc(-c3ccn[nH]3)nc2)c1` [Example 45-2], the figures for the half-inhibitory concentration (IC50) against human CYP4A11 (setting [3]) and against human CYP4F2 (setting [4]) were 150 nM and 3200 nM, respectively.

`O=C(O)CCC12CCC(COc3ccc(-c4ccn[nH]4)nc3)(CC1)CC2` [Example 2-7]: the IC50 against human CYP4A11 (setting [1]) came to 35 nM; against human CYP4F2 (setting [2]), 4400 nM.

`O=C(O)c1cccc(-c2cccc(COc3ccc(-c4ccn[nH]4)nc3)c2)n1` [Example 18-1, 6-[3-[[6-(1H-Pyrazol-5-yl)-3-pyridinyl]oxymethyl]phenyl]-2-pyridinecarboxylic Acid]: the IC50 turned out to be 13 nM on human CYP4A11 (setting [1]) and 460 nM against human CYP4F2 (setting [2]).

In the case of `O=C(O)[C@H]1CC[C@@H](c2cccc(COc3ccc(-c4ccn[nH]4)nc3)c2)CC1` [Example 8-1, cis-4-[3-[[6-(1H-Pyrazol-5-yl)-3-pyridinyl]oxymethyl]phenyl]-1-cyclohexanecarboxylic Acid], the IC50 against human CYP4A11 (setting [1]) was 20 nM; against human CYP4F2 (setting [2]), 790 nM.

For `CC(C)(COc1cccc(COc2ccc(-c3ccn[nH]3)nc2)n1)C(=O)O` [Example 75-6], the 50% inhibitory concentration (IC50) is 180 nM at human CYP4A11 (setting [3]) and 1700 nM on human CYP4F2 (setting [4]).

Turning to `CC(C)(CCCCCCOc1ccc(-c2ccn[nH]2)nc1)C(=O)O` [Example 1-61, 2,2-Dimethyl-8-[[6-(1H-pyrazol-5-yl)-3-pyridinyl]oxy]octanoic Acid], the values for the IC50 against human CYP4A11 (setting [1]) and on human CYP4F2 (setting [2]) were 26 nM and 1900 nM, respectively.

For the compound `O=C(O)C1CC1CCCOc1ccc(-c2ccn[nH]2)nc1` (centres unmarked) [Example 1-28], the IC50 on human CYP4A11 (setting [1]) was 74 nM; against human CYP4F2 (setting [2]) it was 19000 nM.

As for `O=C(O)c1ccnc(-c2cccc(COc3ccc(-c4ccn[nH]4)nc3)c2)c1` [Example 8-10], the values for the IC50 against human CYP4A11 (setting [1]) and on human CYP4F2 (setting [2]) were 35 nM and 1300 nM, respectively.

On to `O=C(O)Cc1cccc(OCCOc2ccc(-c3ccn[nH]3)nc2)c1` [Example 22-19, 2-[3-[2-[[6-(1H-Pyrazol-5-yl)-3-pyridinyl]oxy]ethoxy]phenyl] acetic Acid], for which the IC50 at human CYP4A11 (setting [1]) was determined as 49 nM; against human CYP4F2 (setting [2]), 1500 nM.

On to `CN(C)CCNC(=O)CCc1cccc(COc2ccc(-c3ccn[nH]3)nc2)c1` [Example 43-15], for which the values for the IC50 on human CYP4A11 (setting [3]) and on human CYP4F2 (setting [4]) were 910 nM and 280 nM, respectively.

Regarding `O=C(O)c1ccnc(-c2cccc(COc3ccc(-c4ccn[nH]4)nc3)c2)n1` [Example 22-6], the concentration for half-maximal inhibition (IC50) at human CYP4A11 (setting [1]) is 110 nM; at human CYP4F2 (setting [2]) it was 3100 nM.

Regarding `O=C(O)C1CC1c1cccc(COc2ccc(-c3ccn[nH]3)nc2)c1F` (single isomer, unassigned) [Example 71-45, 2-[2-Fluoro-3-[[6-(1H-pyrazol-5-yl)pyridin-3-yl]oxymethyl]phenyl]cyclopropane-1-carboxylic Acid], the IC50 on human CYP4A11 (setting [3]) was determined as 15 nM; at human CYP4F2 (setting [4]) it was 210 nM.

Regarding `O=C(O)CCCc1ccc(COc2ccc(-c3ccn[nH]3)nc2)cc1` [Example 30-2], the IC50 against human CYP4A11 (setting [1]) is 160 nM; against human CYP4F2 (setting [2]), 190 nM.

As for `CCC(CC)(CCCCOc1ccc(-c2ccn[nH]2)nc1)C(=O)O` [Example 1-64, 2,2-Diethyl-6-[[6-(1H-pyrazol-5-yl)-3-pyridinyl]oxy]hexanoic Acid], the IC50 against human CYP4A11 (setting [1]) was found to be 28 nM; against human CYP4F2 (setting [2]) it was 7500 nM.

With `O=C(O)CCCc1ccc(CCCOc2ccc(-c3ccn[nH]3)nc2)cc1` [Example 30-5], the IC50 at human CYP4A11 (setting [1]) stood at 420 nM; against human CYP4F2 (setting [2]) it was 74 nM.
